Experimental data published in US11111251B2, “Positive allosteric modulators of the muscarinic acetylcholine receptor M1” (Vanderbilt University, priority 2016, dated 2021).
Where two headings read alike, the source gives them in different places.

Biological target: T1, human mAChR M1 (Homo sapiens, UniProt P11229)
T1 sequence (P11229 1-460): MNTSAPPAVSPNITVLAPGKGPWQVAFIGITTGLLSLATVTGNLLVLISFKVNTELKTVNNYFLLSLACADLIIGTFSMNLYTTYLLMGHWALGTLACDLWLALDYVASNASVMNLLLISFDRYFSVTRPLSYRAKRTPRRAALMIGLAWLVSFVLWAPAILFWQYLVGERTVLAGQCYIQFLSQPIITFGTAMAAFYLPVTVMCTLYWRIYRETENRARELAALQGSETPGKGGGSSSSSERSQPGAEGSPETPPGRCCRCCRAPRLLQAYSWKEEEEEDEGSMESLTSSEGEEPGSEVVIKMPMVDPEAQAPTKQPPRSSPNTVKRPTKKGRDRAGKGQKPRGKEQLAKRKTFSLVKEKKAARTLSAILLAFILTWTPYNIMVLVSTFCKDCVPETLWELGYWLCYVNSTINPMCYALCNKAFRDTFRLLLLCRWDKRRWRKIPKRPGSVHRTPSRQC
Test: mAChR M1 cell-based functional assay: calcium mobilization, positive allosteric modulator mode (increase in EC20 acetylcholine response)
Conditions: for Emax: read-out: Human M1 Emax (%)
Summary of the method: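 PAM potency reflects the concentration-dependent increase in calcium response to an EC20 acetylcholine challenge, given 144 s into a 300 s read after compound addition at 4 s (EC80 follows at 230 s). Cells were hM1-expressing CHO-K1, loaded 50 min with Fluo-4 AM. Curves used 11 points at 1:3 dilutions and four-parameter logistic fitting.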

[1] = Table 2, human M1, read-out: Human M1 EC50

| EC50 [1] | Emax (Table 2, human M1) | EC50 (Table 1, mAChR M1 cell-based functional assay, PAM mode, species not given, read-out: EC50) | Molecule | Human M1 Emax (%) (Table 2, human M1) |
| --- | --- | --- | --- | --- |
| 1.35 µM | 57.9% |  | O=C(NC1COC1)c1cc(Cc2ccc(-c3nccs3)cc2)c2sccc2n1 [Compound 365, N-(oxetan-3-yl)-7-[(4-thiazol-2-ylphenyl)methyl]thieno[3,2-b]pyridine-5-carboxamide] |  |
| 1.73 µM | 71.8% |  | O=C(NC1CCOCC1)c1cc(Cc2ccc(C(F)(F)F)nc2)c2sccc2n1 [Compound 89, N-tetrahydropyran-4-yl-7-[[6-(trifluoromethyl)-3-pyridyl]methyl]thieno[3,2-b]pyridine-5-carboxamide] |  |
| 1.77 µM | 65.4% |  | O=C(NC1CN(C2COC2)C1)c1cc(Cc2ccc(-n3cccn3)cc2)c2sccc2n1 [Compound 433, N-[1-(oxetan-3-yl)azetidin-3-yl]-7-[(4-pyrazol-1-ylphenyl)methyl]thieno[3,2-b]pyridine-5-carboxamide] |  |
| 0.00984 µM | 85% |  | Cn1cc(-c2ccc(Cc3cc(C(=O)N[C@@H]4CCC[C@H]4O)nc4ccsc34)cc2)nn1 [Compound 149, N-[(1R,2R)-2-hydroxycyclopentyl]-7-[[4-(1-methyltriazol-4-yl)phenyl]methyl]thieno[3,2-b]pyridine-5-carboxamide] |  |
| 0.0134 µM | 71.2% |  | Cn1cc(-c2ccc(Cc3cc(C(=O)N[C@H]4CCCC[C@@H]4O)nc4ccsc34)cn2)cn1 [Compound 224, N-[(1S,2S)-2-hydroxycyclohexyl]-7-[[6-(1-methylpyrazol-4-yl)-3-pyridyl]methyl]thieno[3,2-b]pyridine-5-carboxamide] |  |
| 3.61 µM | 76.9% |  | Cn1cc(-c2ccc(Cc3cc(C(=O)N[C@H]4CCCC[C@@H]4O)nc4ccsc34)c(F)c2)cn1 [Compound 51, 7-[[2-fluoro-4-(1-methylpyrazol-4-yl)phenyl]methyl]-N-[(1S,2S)-2-hydroxycyclohexyl]thieno[3,2-b]pyridine-5-carboxamide] |  |
| 0.108 µM | 73.5% |  | Cn1ccc2nc(C(=O)N[C@H]3CC[C@@H]3O)cc(Cc3ccc(-c4cscn4)cc3)c21 [Compound 459, N-[(1S,2S)-2-hydroxycyclobutyl]-1-methyl-7-[(4-thiazol-4-ylphenyl)methyl]pyrrolo[3,2-b]pyridine-5-carboxamide] |  |
| 3.61 µM | 68.5% |  | Cc1nc(-c2ccc(Cc3cc(C(=O)N[C@H]4CCOC4)nc4ccsc34)cc2)cs1 [Compound 184, 7-[[4-(2-methylthiazol-4-yl)phenyl]methyl]-N-[(3S)-tetrahydrofuran-3-yl]thieno[3,2-b]pyridine-5-carboxamide] |  |
| 0.345 µM | 64.9% |  | O=C(NC[C@@H]1CCCO1)c1cc(Cc2ccc(-c3nccs3)cc2)c2sccc2n1 [Compound 389, N-[[(2S)-tetrahydrofuran-2-yl]methyl]-7-[(4-thiazol-2-ylphenyl)methyl]thieno[3,2-b]pyridine-5-carboxamide] |  |
| 0.343 µM | 89.7% |  | Cc1nc(-c2ccc(Cc3cc(C(=O)NC4CC5(COC5)C4)nc4ccsc34)cc2)co1 [Compound 158, 7-[[4-(2-methyloxazol-4-yl)phenyl]methyl]-N-(2-oxaspiro[3.3]heptan-6-yl)thieno[3,2-b]pyridine-5-carboxamide] |  |
| > 10 µM | 33% |  | O=C(c1cc(Cc2ccc(-n3cccn3)cc2)c2sccc2n1)N1CCC[C@@H](O)C1 [Compound 81, [(3R)-3-hydroxy-1-piperidyl]-[7-[(4-pyrazol-1-ylphenyl)methyl]thieno[3,2-b]pyridin-5-yl]methanone] |  |
|  |  | 1.14 µM | Cc1ccc(Oc2cc(C(=O)N[C@H]3CCCC[C@@H]3O)nc3ccsc23)cn1 [Compound 21, N-[(1S,2S)-2-hydroxycyclohexyl]-7-[(6-methyl-3-pyridyl)oxy]thieno[3,2-b]pyridine-5-carboxamide] |  |
| 0.0294 µM | 79.9% |  | Cn1cc(-c2ccc(Cc3cc(C(=O)N[C@H]4CCC[C@@H]4O)nc4ccsc34)cn2)cn1 [Compound 223, N-[(1S,2S)-2-hydroxycyclopentyl]-7-[[6-(1-methylpyrazol-4-yl)-3-pyridyl]methyl]thieno[3,2-b]pyridine-5-carboxamide] |  |
| 1.37 µM | 65.2% |  | O=C(NCC1CCCO1)c1cc(Cc2ccc(-c3nccs3)cc2)c2sccc2n1 (stereo not shown) [Compound 384, N-(tetrahydrofuran-2-ylmethyl)-7-[(4-thiazol-2-ylphenyl)methyl]thieno[3,2-b]pyridine-5-carboxamide] |  |
| 0.0271 µM | 78.6% |  | Cn1cc(-c2ccc(Cc3cc(C(=O)NC4CCOCC4)nc4ccsc34)cc2)nn1 [Compound 229, 7-[[4-(1-methyltriazol-4-yl)phenyl]methyl]-N-tetrahydropyran-4-yl-thieno[3,2-b]pyridine-5-carboxamide] |  |
| 0.111 µM | 59.6% |  | O=C(N[C@H]1CCC[C@@H]1O)c1cc(Cc2ccc(-c3cncs3)cc2)c2sccc2n1 [Compound 397, N-[(1S,2S)-2-hydroxycyclopentyl]-7-[(4-thiazol-5-ylphenyl)methyl]thieno[3,2-b]pyridine-5-carboxamide] |  |
| 0.368 µM | 69.9% |  | O=C(NC1CCOCC1)c1ccc(Cc2cc(C(=O)NC3CCOCC3)nc3ccsc23)cc1 [Compound 407, N-tetrahydropyran-4-yl-7-[[4-(tetrahydropyran-4-ylcarbamoyl)phenyl]methyl]thieno[3,2-b]pyridine-5-carboxamide] |  |
| 3.13 µM | 34.2% |  | O=C(NC12CC3CC(CC(O)(C3)C1)C2)c1cc(Cc2ccc(C(F)(F)F)nc2)c2sccc2n1 [Compound 95, N-(3-hydroxy-1-adamantyl)-7-[[6-(trifluoromethyl)-3-pyridyl]methyl]thieno[3,2-b]pyridine-5-carboxamide] |  |
| 5.6 µM | 71.6% |  | Cn1cc(-c2cc(F)c(Cc3cc(C(=O)N[C@H]4COCC[C@@H]4O)nc4ccsc34)c(F)c2)cn1 [Compound 60, 7-[[2,6-difluoro-4-(1-methylpyrazol-4-yl)phenyl]methyl]-N-[(3S,4S)-4-hydroxytetrahydropyran-3-yl]thieno[3,2-b]pyridine-5-carboxamide] |  |
| 0.405 µM | 69.9% |  | Cc1csc2c(Cc3ccc(-c4ccn(C)n4)cc3)cc(C(=O)NC3CCOCC3)nc12 [Compound 302, 3-methyl-7-[[4-(1-methylpyrazol-3-yl)phenyl]methyl]-N-tetrahydropyran-4-yl-thieno[3,2-b]pyridine-5-carboxamide] |  |
| 0.434 µM | 35.9% |  | O=C(NC1CC2(COC2)C1)c1cc(Cc2c(F)cc(-c3cscn3)cc2F)c2sccc2n1 [Compound 272, 7-[(2,6-difluoro-4-thiazol-4-yl-phenyl)methyl]-N-(2-oxaspiro[3.3]heptan-6-yl)thieno[3,2-b]pyridine-5-carboxamide] |  |
| 3.82 µM | 64% |  | Cc1nc(-c2ccc(Cc3cc(C(=O)NC4CC(F)C4)nc4ccsc34)cc2)cs1 (stereo not shown) [Compound 181, N-(3-fluorocyclobutyl)-7-[[4-(2-methylthiazol-4-yl)phenyl]methyl]thieno[3,2-b]pyridine-5-carboxamide] |  |
| > 10 µM | 43.6% |  | O=C(NC1C2CC3C[C@H]1CC(O)(C3)C2)c1cc(Cc2ccc(C(F)(F)F)nc2)c2sccc2n1 (stereo partly drawn) [Compound 96, N-[(1S)-5-hydroxy-2-adamantyl]-7-[[6-(trifluoromethyl)-3-pyridyl]methyl]thieno[3,2-b]pyridine-5-carboxamide] |  |
| 1.69 µM | 78.8% |  | Cn1cc(-c2ccc(Cc3cc(C(=O)NC4COC4)nc4ccsc34)cn2)cn1 [Compound 341, 7-[[6-(1-methylpyrazol-4-yl)-3-pyridyl]methyl]-N-(oxetan-3-yl)thieno[3,2-b]pyridine-5-carboxamide] |  |
| 8.35 µM | 63% |  | Cn1ccc(-c2ccc(Cc3cc(C(=O)NC4COC4)nc4ccsc34)cn2)n1 [Compound 415] |  |
| 0.627 µM | 67.9% |  | O=C(N[C@@H]1CCOC1)c1cc(Cc2ccc(-n3cccn3)cc2)c2sccc2n1 [Compound 277, 7-[(4-pyrazol-1-ylphenyl)methyl]-N-[(3R)-tetrahydrofuran-3-yl]thieno[3,2-b]pyridine-5-carboxamide] |  |
| 5.06 µM | 71% |  | Cc1ccc(Cc2cc(C(=O)NC3CCCNC3=O)nc3c(C)csc23)cn1 (stereo not shown) [Compound 110, 3-methyl-7-[(6-methyl-3-pyridyl)methyl]-N-(2-oxo-3-piperidyl)thieno[3,2-b]pyridine-5-carboxamide] |  |
| 2.31 µM | 79.9% |  | Cn1ccc(-c2ccc(Cc3cc(C(=O)NCC4CCOCC4)nc4ccn(C)c34)cn2)n1 [Compound 508, 1-methyl-7-[[6-(1-methylpyrazol-3-yl)-3-pyridyl]methyl]-N-(tetrahydropyran-4-ylmethyl)pyrrolo[3,2-b]pyridine-5-carboxamide;] |  |
| 0.222 µM | 69.1% |  | Cn1ccc(-c2ccc(Cc3cc(C(=O)N[C@@H]4CC[C@H]4O)nc4ccsc34)cn2)n1 [Compound 412] |  |
|  |  |  | N-[(1S,2S)-2-hydroxycyclohexyl]-7-(4-[(4-2-ylphenyl)methyl]thieno[3,2-b]pyridine-5-carboxamide [Compound 295] | 72.42% |
